These results are taken from patent US20110039762A1, “TARGETED ANTIMICROBIAL MOIETIES” (C3 JIAN, INC., priority 2009, published 2011).

Entries after “also recorded” stand apart in the source; their conditions may differ.

One assay relates to B. subtilis. The assay is described as follows: Kill or inhibit growth/proliferation; morphology, biofilm and growth disruption (Tables 5, 6). Further: test concentration or dose not given here. The assay is classed as cell-based, Bacillus subtilis. Set-up: key: A: Peptide aggregates; B: Less hyphal formation; Clumps; Diffuse clumps and small polyps; F: Diffuse growth; H: Thin; I: Growth inhibition; Microcolony formation; Rippled; Small polyps; Thick; W: Halo formation on top, microlonies on bottom.

The test system of assay [1] is microorganisms (e.g., bacteria, yeasts, fungi). The assay is described as follows: Targeting peptide binding to target microorganisms (Table 3). To be noted: preferably 1x PBS; for Target(s) (microorganisms bound by the targeting peptide): peptide binding in aqueous buffers varied by peptide solubility.
In the next assay the test system is microorganisms. The assay is described as follows: Peptides having multiple activities (targeting/binding, antimicrobial, growth or phenotype altering). From the text:
In certain embodiments, peptides described herein can have multiple activities. Thus for example, a peptide can have both binding/targeting activity and antimicrobial activity. Such peptides can be used, e.g., in a chimeric construct, for any or all of these properties. Thus, for example, a peptide designated “B” in Table 8 can be used as a targeting peptide. If it is also designated G or M it can also be used for antimicrobial activity.

The next assay deals with C. jejuni. The assay is described as follows: Kill or inhibit growth/proliferation; morphology, biofilm and growth disruption (Tables 5, 6). Further: test concentration or dose not given here. The assay is classed as cell-based, Campylobacter jejuni. Set-up: key: A: Peptide aggregates; B: Less hyphal formation; Clumps; Diffuse clumps and small polyps; F: Diffuse growth; H: Thin; I: Growth inhibition; Microcolony formation; Rippled; Small polyps; Thick; W: Halo formation on top, microlonies on bottom.

Another assay deals with S. pneumoniae. Described as above. The assay is classed as cell-based, Streptococcus pneumoniae. Set-up: key: A: Peptide aggregates; B: Less hyphal formation; Clumps; Diffuse clumps and small polyps; F: Diffuse growth; H: Thin; I: Growth inhibition; Microcolony formation; Rippled; Small polyps; Thick; W: Halo formation on top, microlonies on bottom.
In the next assay the test system is MRSA. The assay is described as above. Type of assay: cell-based, Methicillin-resistant Staphylococcus aureus. Also noted: key: A: Peptide aggregates; B: Less hyphal formation; Clumps; Diffuse clumps and small polyps; F: Diffuse growth; H: Thin; I: Growth inhibition; Microcolony formation; Rippled; Small polyps; Thick; W: Halo formation on top, microlonies on bottom. Further: test concentration or dose not given here.

The next assay concerns S. epidermidis. The assay is described as above. The assay is classed as cell-based, Staphylococcus epidermidis. Also noted: key: A: Peptide aggregates; B: Less hyphal formation; Clumps; Diffuse clumps and small polyps; F: Diffuse growth; H: Thin; I: Growth inhibition; Microcolony formation; Rippled; Small polyps; Thick; W: Halo formation on top, microlonies on bottom.
Where [2] appears, read: microorganism the targeting peptide binds, binding in aqueous buffers varied by peptide solubility.
[3] abbreviates: microorganism(s) the targeting peptide binds, peptide binding conducted in aqueous buffers varied by peptide solubility.
Where [4] appears, read: microorganism(s) the targeting peptide binds, binding in aqueous buffers depending on peptide solubility.
Wherever Organism, effect (morphology, biofilm and growth disruption) is given: test concentration or dose not given here.
Wherever Organism, effect is given: test concentration or dose not given here.

Turning to “PF-008: peptide having multiple activities (chain 1 MIEIGSIAYLNGGSKKYNHILNQENR; chain 2 MIEIGSIAYLNGGSKKYNHILNQENR; Peptide with targeting and/or antimicrobial activity)”, the “Organism, effect” value is on record as “B. subtilis (D)” in the assay with B. subtilis and “C. jejuni (R)” in the assay on C. jejuni. The “Target(s)” value in assay [1] (setting [2]) was “S. epidermidis and M. luteus and MRSA and C. jejuni”. The Activities result in the assay on microorganisms is “G B”.

As for “PF-558: peptide having multiple activities (chain 1 ADAPPPLIVRYS; chain 2 ADAPPPLIVRYS; Peptide with targeting and/or antimicrobial activity)”, the “Organism, effect” value was “S. pneumoniae (R)” with S. pneumoniae; “B. subtilis (D)” with B. subtilis; “C. jejuni (H)” in the assay with C. jejuni; “MRSA (C)” with MRSA; “S. epidermidis (M)” with S. epidermidis. For the same substance, the “Target(s)” value in assay [1] (setting [3]) is on record as “S. epidermidis; also recorded: E. coli; also recorded: C. albicans; also recorded: C. jeikeium; also recorded: C. jejuni”. Besides, the Activities result in the assay with microorganisms is on record as “G B”.

As to “PF-297: peptide having multiple activities (ISKGIDDIVYVINKILSIGNIFKIIKRK; Peptide with targeting and/or antimicrobial activity)”, the figures for the “Organism, effect” value with B. subtilis and in the assay with S. epidermidis were “B. subtilis (C)” and “S. epidermidis (C)”, respectively. Also, in assay [1] (setting [4]), the “Target(s)” value is “S. epidermidis; also recorded: B. subtilis; also recorded: B. fragilis”. In addition, the Activities entry in the assay on microorganisms is reported as “G B”.

With “PF-292: peptide having multiple activities (SFVSTTVRLIFEESKRYKF; Peptide with targeting and/or antimicrobial activity)”, the “Organism, effect” value in the assay with B. subtilis is “B. subtilis (C)”; in the assay on S. epidermidis, “S. epidermidis (C)”. Further, the “Target(s)” value in assay [1] (setting [4]) is on record as “S. epidermidis; also recorded: B. subtilis; also recorded: B. fragilis”. In addition, in the assay on microorganisms, the Activities entry is recorded as “G B”.

In the case of “SIGSMIGMYSFRHKTKHIKFTFGIPFILFLQFLLVYFYILK [PF-319]”, the figures for the “Organism, effect” value with B. subtilis and with S. epidermidis were “B. subtilis (C)” and “S. epidermidis (C)”, respectively. For the same substance, the “Target(s)” value in assay [1] (setting [4]) is listed as “S. epidermidis; also recorded: B. subtilis; also recorded: C. difficile”. For the same substance, in the assay on microorganisms, the Activities entry was “G B”.

Consider “PF-069: peptide having multiple activities (FDPVPLKKDKSASKHSHKHNH; Peptide with targeting and/or antimicrobial activity)”, for which the “Organism, effect” value with B. subtilis was “B. subtilis (D)”; in the assay on C. jejuni it was “C. jejuni (R)”. Further, in assay [1] (setting [2]), the “Target(s)” value was “E. faecalis; also recorded: C. jejuni”. For the same substance, the Activities entry in the assay with microorganisms was “G B”.

With “PF-560: peptide having multiple activities (chain 1 FGNPFRGFTLAMEADFKKRK; chain 2 FGNPFRGFTLAMEADFKKRK; Peptide with targeting and/or antimicrobial activity)”, the “Organism, effect” value in the assay on S. pneumoniae was “S. pneumoniae (R)”; in the assay on B. subtilis, “B. subtilis (D)”; in the assay on C. jejuni it was “C. jejuni (A)”; in the assay with MRSA, “MRSA (C)”. For the same substance, the “Target(s)” value in assay [1] (setting [3]) was “S. epidermidis; also recorded: M. luteus; also recorded: E. coli; also recorded: S. pneumoniae; also recorded: C. jeikeium; also recorded: C. jejuni”. In the assay on microorganisms, the Activities result is listed as “G B”.

Consider “PF-061: peptide having multiple activities (chain 1 GYNSYKAVQDVKTHSEEQRVTAKK; chain 2 GYNSYKAVQDVKTHSEEQRVTAKK; Peptide with targeting and/or antimicrobial activity)”, for which the “Organism, effect” value is reported as “S. pneumoniae (R)” in the assay with S. pneumoniae, “B. subtilis (R)” in the assay with B. subtilis, “C. jejuni (R)” with C. jejuni and “S. epidermidis (R)” with S. epidermidis. The “Target(s)” value in assay [1] (setting [2]) is recorded as “S. epidermidis; also recorded: S. pneumoniae”. Also, the Activities result with microorganisms is given as “G B”.

Turning to “PF-559: peptide having multiple activities (chain 1 SRPGKPGGVSIDVSRDRQDILSNYP; chain 2 SRPGKPGGVSIDVSRDRQDILSNYP; Peptide with targeting and/or antimicrobial activity)”, the figures for the “Organism, effect” value in the assay with B. subtilis and with C. jejuni were “B. subtilis (C)” and “C. jejuni (A)”, respectively. Besides, the “Target(s)” value in assay [1] (setting [3]) was “S. epidermidis; also recorded: M. luteus; also recorded: C. albicans; also recorded: C. jeikeium; also recorded: C. jejuni”. Moreover, in the assay with microorganisms, the Activities entry is reported as “G B”.

For the substance “PF-563: peptide having multiple activities (chain 1 RPELDNELDVVQNSASLDKLQASYN; chain 2 RPELDNELDVVQNSASLDKLQASYN; Peptide with targeting and/or antimicrobial activity)”, the entries for the “Organism, effect” value with S. pneumoniae, in the assay with B. subtilis and in the assay on C. jejuni were “S. pneumoniae (H)”, “B. subtilis (D)” and “C. jejuni (H)”, respectively. The “Target(s)” value in assay [1] (setting [3]) is listed as “S. epidermidis; also recorded: M. luteus; also recorded: C. jeikeium”. Besides, the Activities result in the assay with microorganisms is recorded as “G B”.

On to “PF-318 (MGRHLWNPSYFVATVSENTEEQIRKYINNQKKQVK; Peptide with targeting and/or antimicrobial activity)”, for which the “Organism, effect” value is given as “B. subtilis (C)” with B. subtilis and “S. epidermidis (C)” in the assay with S. epidermidis.

For “PF-655: peptide having multiple activities (chain 1 DAPCFDDQFGDLKCQMC; chain 2 DAPCFDDQFGDLKCQMC; Peptide with targeting and/or antimicrobial activity)”, the “Organism, effect (morphology, biofilm and growth disruption)” value in the assay on S. pneumoniae is given as “S. pneumoniae (H)”; in the assay on B. subtilis, “B. subtilis (H)”; in the assay on MRSA, “MRSA (M)”; in the assay on S. epidermidis it was “S. epidermidis (R)”. Besides, in assay [1], the “Target(s) (microorganisms bound by the targeting peptide)” value is listed as “M. smegmatis”. In addition, the Activities entry with microorganisms is reported as “G B”.

For the substance “PF-301: peptide having multiple activities (GIVLIGLKLIPLLANVLN; Peptide with targeting and/or antimicrobial activity)”, the “Organism, effect” value with B. subtilis is recorded as “B. subtilis (C)”; in the assay on S. epidermidis, “S. epidermidis (C)”. For the same substance, in assay [1] (setting [4]), the “Target(s)” value is given as “C. difficile”. The Activities entry in the assay with microorganisms is “G B”.

On to “PF-659 (chain 1 TVIST; chain 2 TVIST; Peptide with targeting and/or antimicrobial activity)”, for which the “Organism, effect (morphology, biofilm and growth disruption)” value is recorded as “S. pneumoniae (C)” in the assay on S. pneumoniae, “B. subtilis (H)” in the assay on B. subtilis, “MRSA (R)” with MRSA and “S. epidermidis (M)” in the assay on S. epidermidis. In assay [1], the “Target(s) (microorganisms bound by the targeting peptide)” value is listed as “Mycobacteria spp”.
